EC50, pKDapp and Kd data for two molecules are collected here from PMC11876601 (Molecular Systems Biology, 2025).

One assay has as its system CHEK1. The note with it: cited from earlier work; for Kd: read-out: KDapp.
In a further assay the test system is CLK1. The note with it: cited from earlier work.
A further assay deals with CAMK2D. The note with it: cited from earlier work.
The next assay has as its system ERN1. The conditions noted are these: cited from earlier work.
Another assay has as its system RET. The conditions noted are these: cited from earlier work.
Another assay has as its system MARK4. The conditions noted are these: cited from earlier work.
The next assay relates to MAP4K1. The conditions noted are these: cited from earlier work.
The subject of the next assay is PAK4. The note with it: cited from earlier work.
In another assay the test system is PKN2. The note with it: cited from earlier work.
Another assay has as its system BxPC-3. Kind of assay: cells. More on the design: ATPlite luminescence viability of PDAC cell lines, 11-dose single-agent curves, 4-parameter fit. The conditions noted are these: Homo sapiens, BXPC-3, 72 h, read-out: EC50 [nM]. A digest of the protocol:
(§1)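 Drug-combination screening used cells plated at 1000 to 5000 per well one day before treatment. Final DMSO was 0.2%. Each plate held untreated negative-control wells and 5 µM staurosporine positive-control wells.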

The test system of the next assay is PaTu-8988-T. Kind of assay: cells. More on the design: ATPlite luminescence viability of PDAC cell lines, 11-dose single-agent curves, 4-parameter fit. The note with it: Homo sapiens, PaTu 8988t, 72 h, read-out: EC50 [nM]. A digest of the protocol:
as §1

A further assay concerns AsPC-1. Kind of assay: cells. More on the design: ATPlite luminescence viability of PDAC cell lines, 11-dose single-agent curves, 4-parameter fit. The note with it: Homo sapiens, ASPC1, 72 h, read-out: EC50 [nM]. A digest of the protocol:
as §1

Setting [1] is: 4 cell line mix lysate, Kinobeads y, ref Klaeger et al. (2017).
The mark [2] stands for this setting: CHEK1, 5 cell line mix lysate, Kinobeads ε, ref Reinecke et al. (2023).
[3] abbreviates: CLK1, 5 cell line mix lysate, Kinobeads ε, ref Reinecke et al. (2023).
[4] abbreviates: 5 cell line mix lysate, Kinobeads ε, ref Reinecke et al. (2023), read-out: KDapp.
Setting [5] is: 5 cell line mix lysate, Kinobeads ε, ref Reinecke et al. (2023).
Setting [6] is: ERN1, 5 cell line mix lysate, Kinobeads ε, ref Reinecke et al. (2023).
[7] abbreviates: MARK4, 5 cell line mix lysate, Kinobeads ε, ref Reinecke et al. (2023).
The mark [8] stands for this setting: MAP4K1, 5 cell line mix lysate, Kinobeads ε, ref Reinecke et al. (2023).
Setting [9] is: PAK4, 5 cell line mix lysate, Kinobeads ε, ref Reinecke et al. (2023).
[10] abbreviates: PKN2, 5 cell line mix lysate, Kinobeads ε, ref Reinecke et al. (2023).

Like-named read-outs stand apart in the source and are kept apart here.

As to `C[C@]12O[C@H](C[C@]1(O)CO)n1c3ccccc3c3c4c(c5c6ccccc6n2c5c31)CNC4=O` [Lestaurtinib], the EC50 was […] in the assay with CHEK1 (CHEK1, 4 cell line mix lysate, Kinobeads y, ref Klaeger et al. (2017)); […] in the assay on CLK1 (CLK1, 4 cell line mix lysate, Kinobeads y, ref Klaeger et al. (2017)); […] in the assay with CAMK2D (setting [1]); […] in the assay with ERN1 (ERN1, 4 cell line mix lysate, Kinobeads y, ref Klaeger et al. (2017)); […] with RET (setting [1]); […] in the assay with MARK4 (MARK4, 4 cell line mix lysate, Kinobeads y, ref Klaeger et al. (2017)). The EC50 in the assay on MAP4K1 (MAP4K1, 4 cell line mix lysate, Kinobeads y, ref Klaeger et al. (2017)) is 0.347 µM; in the assay on PAK4 (PAK4, 4 cell line mix lysate, Kinobeads y, ref Klaeger et al. (2017)) it was […]; with PKN2 (PKN2, 4 cell line mix lysate, Kinobeads y, ref Klaeger et al. (2017)), […]; with BxPC-3, 432 nM; with PaTu-8988-T, 407 nM.

As for `COc1cc(N2CCC(N3CCN(C)CC3)CC2)ccc1Nc1ncc(Cl)c(Nc2ccccc2P(C)(C)=O)n1` [Brigatinib], the EC50 in the assay with CHEK1 (setting [2]) was 0.0705 µM; in the assay on CLK1 (setting [3]) it was 0.0131 µM; in the assay with CAMK2D (setting [5]), 0.424 µM; with ERN1 (setting [6]), 0.142 µM; with RET (setting [5]), 0.283 µM; in the assay with MARK4 (setting [7]) it was 0.232 µM. The EC50 with MAP4K1 (setting [8]) is 0.716 µM; with PAK4 (setting [9]), 1.19 µM; in the assay with PKN2 (setting [10]), 1.04 µM; in the assay with AsPC-1 it was 272 nM. Besides, the pKDapp on CHEK1 (setting [2]) is reported as 7.24; at CLK1 (setting [3]), 8.03; at CAMK2D (setting [5]), 7.06; on ERN1 (setting [6]) it was 6.94; on RET (setting [5]) it was 6.90; on MARK4 (setting [7]), 6.71. Also, the pKDapp is listed as 6.28 on MAP4K1 (setting [8]), 6.14 at PAK4 (setting [9]) and 6.07 on PKN2 (setting [10]). Moreover, the Kd on CHEK1 (setting [2]) is 0.0582 µM; on CHEK1 (Kinobeads, ref Klaeger et al, 2017a, Reinecke et al, 2023a), 0.07 µM; on CLK1 (CLK1, 5 cell line mix lysate, Kinobeads ε, ref Reinecke et al. (2023), read-out: KDapp), 0.00935 µM; on CAMK2D (setting [4]), 0.0864 µM; at ERN1 (ERN1, 5 cell line mix lysate, Kinobeads ε, ref Reinecke et al. (2023), read-out: KDapp), 0.115 µM; at RET (setting [4]), 0.125 µM. Besides, the Kd at MARK4 (MARK4, 5 cell line mix lysate, Kinobeads ε, ref Reinecke et al. (2023), read-out: KDapp) was 0.193 µM; on MAP4K1 (MAP4K1, 5 cell line mix lysate, Kinobeads ε, ref Reinecke et al. (2023), read-out: KDapp) it was 0.52 µM; at PAK4 (PAK4, 5 cell line mix lysate, Kinobeads ε, ref Reinecke et al. (2023), read-out: KDapp), 0.718 µM; on PKN2 (PKN2, 5 cell line mix lysate, Kinobeads ε, ref Reinecke et al. (2023), read-out: KDapp), 0.852 µM.

As a reminder, the EC50 is the concentration that produces a half-maximal response.
